According to PubChem BioAssay (NCI):
Values joined by “and” are separate entries in the source; they are usually repeats but may differ in a detail not shown here. Equal entries are not always repeated.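 Protocol summary: plate cells (96-well), add compound at 5 concentrations, incubate 48 h, interpolate endpoints linearly. GI50: concentration for 50% inhibition of growth. TGI marks complete inhibition of growth.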

Assays:
Experiment in all cases: growth of human tumour cells (NCI), 48 h
[1] = tested on: HCT-15 colon
[2] = tested on: ACHN renal
[3] = tested on: HOP-92 NSCLC
[4] = tested on: SNB-75 CNS
[5] = tested on: 786-0 renal
[6] = tested on: SK-MEL-2 melanoma
[7] = tested on: HOP-62 NSCLC
[8] = tested on: SN12C renal
[9] = tested on: PC-3 prostate
[10] = tested on: BT-549 breast

Structure (SMILES) | TGI [1] | TGI [2] | TGI [3] | TGI [4] | TGI [5] | TGI [6] | TGI [7] | TGI [8] | GI50 [1] | GI50 [2] | GI50 [3] | GI50 [4] | GI50 [5] | GI50 [6] | GI50 [7] | GI50 [9] | TGI [9] | GI50 [10] | TGI [10] | GI50 [8]
COC(=O)C(=O)C1CCCCC(C2=NC3NN=C(N)N3C2=O)C1=O (centres undefined) | > 100 µM | > 100 µM | > 100 µM | > 100 µM | > 100 µM | > 100 µM | > 100 µM | > 100 µM |  |  |  |  |  |  |  |  |  |  |  | 
NNC(=S)N/N=C/C(Cl)=C(\Cl)C(=O)O | > 100 µM | > 100 µM | > 100 µM | > 100 µM | > 100 µM | > 100 µM |  | > 100 µM |  |  |  |  |  |  |  |  |  |  |  | 
CC(C)[O-].CC(C)[O-].[O-]c1cccc2cccnc12.[O-]c1cccc2cccnc12.[Ti+4] | > 100 µM | > 100 µM | 50.3 µM | > 100 µM | 20.9 µM | > 100 µM | > 100 µM |  | 4.79 µM and 8.05 µM | 88.6 µM | 14.3 µM | > 100 µM | 3.38 µM and 4.05 µM | 31.3 µM | > 100 µM |  |  |  |  | 
COc1cnc2c(c1)C(=O)c1c-2n(CCCN2CCN(CCO)CC2)c(=O)c2cc([N+](=O)[O-])ccc12 | 2.67 µM | 15.9 µM | 31 µM | 13.1 µM | 3.13 µM | 39 µM | 19.6 µM |  | 1.18 µM | 0.738 µM | 13.3 µM | 1.64 µM | 1.61 µM | 18.7 µM | 2.76 µM | 16.5 µM | 92.6 µM | 2.9 µM | 18.9 µM | 
C[N+]1=c2c3cccc4cccc(c(=O)n2CCC1)c43 | > 100 µM | 51.8 µM | 93.3 µM | 78.7 µM | > 100 µM | 35.3 µM | 86.2 µM | 52.7 µM |  |  |  |  |  |  |  |  |  |  |  | 
CCOc1ccc(NC(=O)CCC(=O)NN)cc1 | > 100 µM | > 100 µM | > 100 µM | > 100 µM | > 100 µM | > 100 µM | > 100 µM | > 100 µM |  |  |  |  |  |  |  |  |  |  |  | 
COc1cc(/C=C/C(=O)c2ccc(Nc3nc(Nc4ccccc4)nc(Nc4ccc(Cl)cc4)n3)cc2)cc(OC)c1OC | > 32.5 µM | > 32.5 µM | > 32.5 µM | > 32.5 µM | > 32.5 µM | > 32.5 µM | > 32.5 µM | > 32.5 µM | 8.86 µM | 10.8 µM | 1.91 µM | 6.05 µM | 9.84 µM | > 32.5 µM | > 32.5 µM |  |  | 7.51 µM | > 32.5 µM | 20.9 µM
CCc1oc2ccc(OC)c3c2c1C=CC=C3 | > 100 µM | > 100 µM |  | > 100 µM | > 100 µM | > 100 µM | > 100 µM | > 100 µM |  |  |  |  |  |  |  |  |  |  |  | 
CCS/C(Nc1ccccc1)=C(\C#N)C(=O)N/N=C/c1ccc(Cl)cc1Cl | > 100 µM | > 100 µM |  | 9.37 µM | > 100 µM | 43.6 µM | > 100 µM | > 100 µM | 2.9 µM | 7.08 µM |  | 2.15 µM | 3.5 µM | 3.24 µM | 3.66 µM |  |  | 2.8 µM | > 100 µM | 6.92 µM
